Structures can show the parent of a compound that is named as a salt.
Experiments:
Adrenergic α1A = experiment: competitive radioligand binding, Adrenergic α1A; conditions: compound concentration of 1 μM
Method: (§1) Profiles of pharmacological activity of thieno-pyrrolo[3,2-c]pyridines of the general formula 1. Biological activity test of compounds of the general formula 1 was carried out in the setting of competitive radioligand binding [I. Okun, S. Tkachenko, A. Khvat, et al., Current Alzheimer Research, 7(2), 97-112 (2010)], using a wide range of therapeutic targets including G-protein coupled receptors (GPCR), ion channels and neuromediator transporters. The tested activity was determined by quantitative measurement of radio-labelled ligand displacement by tested compounds of the general formula 1 at their concentration of 1 μM.

Adrenergic α1B = experiment: competitive radioligand binding, Adrenergic α1B; conditions: compound concentration of 1 μM
Method: as §1

Adrenergic α1D = target: T1, Adrenergic α1D (Homo sapiens, UniProt P25100); experiment: competitive radioligand binding, Adrenergic α1D; conditions: compound concentration of 1 μM
T1 sequence (P25100 1-572): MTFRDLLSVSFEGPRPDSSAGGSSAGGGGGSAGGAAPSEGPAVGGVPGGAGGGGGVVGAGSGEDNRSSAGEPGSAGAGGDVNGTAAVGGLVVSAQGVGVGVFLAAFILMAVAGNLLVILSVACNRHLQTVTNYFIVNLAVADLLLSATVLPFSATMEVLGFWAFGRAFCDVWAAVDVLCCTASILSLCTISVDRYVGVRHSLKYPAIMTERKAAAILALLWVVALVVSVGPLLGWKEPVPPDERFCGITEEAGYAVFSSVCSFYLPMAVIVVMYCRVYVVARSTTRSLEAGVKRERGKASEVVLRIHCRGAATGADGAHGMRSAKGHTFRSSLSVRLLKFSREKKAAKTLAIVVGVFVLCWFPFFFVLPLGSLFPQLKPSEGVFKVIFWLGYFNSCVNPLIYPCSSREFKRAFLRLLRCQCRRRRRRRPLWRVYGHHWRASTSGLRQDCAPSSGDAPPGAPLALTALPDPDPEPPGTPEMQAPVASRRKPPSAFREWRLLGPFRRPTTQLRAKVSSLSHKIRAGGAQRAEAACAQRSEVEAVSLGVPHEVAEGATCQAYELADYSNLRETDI
Method: as §1

Adrenergic α2A = target: T2, Adrenergic α2A (Homo sapiens, UniProt P08913); experiment: competitive radioligand binding, Adrenergic α2A; conditions: compound concentration of 1 μM
T2 sequence (P08913 1-465): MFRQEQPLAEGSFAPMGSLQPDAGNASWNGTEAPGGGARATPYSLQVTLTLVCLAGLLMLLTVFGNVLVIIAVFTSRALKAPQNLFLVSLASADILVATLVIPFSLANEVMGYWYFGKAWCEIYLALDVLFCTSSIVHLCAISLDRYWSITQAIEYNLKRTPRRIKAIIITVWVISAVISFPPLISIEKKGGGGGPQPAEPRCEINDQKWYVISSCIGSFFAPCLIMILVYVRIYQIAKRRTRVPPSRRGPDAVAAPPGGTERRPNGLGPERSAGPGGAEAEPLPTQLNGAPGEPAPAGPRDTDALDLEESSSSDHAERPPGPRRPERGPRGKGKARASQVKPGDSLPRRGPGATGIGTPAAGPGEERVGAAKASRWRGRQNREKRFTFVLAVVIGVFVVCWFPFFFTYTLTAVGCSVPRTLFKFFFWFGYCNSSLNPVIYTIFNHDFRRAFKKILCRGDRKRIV
Method: as §1

Dopaminergic D1 = Dopaminergic D1 (Homo sapiens, UniProt P21728); experiment: competitive radioligand binding, Dopaminergic D1; conditions: compound concentration of 1 μM
Method: as §1

Dopaminergic D2L = Dopaminergic D2L (Homo sapiens, UniProt P14416); experiment: competitive radioligand binding, Dopaminergic D2L; conditions: compound concentration of 1 μM
Method: as §1

Dopaminergic D2S = Dopaminergic D2S (Homo sapiens, UniProt P14416); experiment: competitive radioligand binding, Dopaminergic D2S; conditions: compound concentration of 1 μM
Method: as §1

Dopaminergic D3 = Dopaminergic D3 (Homo sapiens, UniProt P35462); experiment: competitive radioligand binding, Dopaminergic D3; conditions: compound concentration of 1 μM
Method: as §1

Dopaminergic D4.2 = target: T3, Dopaminergic D4.2 (Homo sapiens, UniProt P21917, DEL265-296); experiment: competitive radioligand binding, Dopaminergic D4.2; conditions: compound concentration of 1 μM
T3 sequence (P21917 with tags, fused parts or gaps DEL265-296): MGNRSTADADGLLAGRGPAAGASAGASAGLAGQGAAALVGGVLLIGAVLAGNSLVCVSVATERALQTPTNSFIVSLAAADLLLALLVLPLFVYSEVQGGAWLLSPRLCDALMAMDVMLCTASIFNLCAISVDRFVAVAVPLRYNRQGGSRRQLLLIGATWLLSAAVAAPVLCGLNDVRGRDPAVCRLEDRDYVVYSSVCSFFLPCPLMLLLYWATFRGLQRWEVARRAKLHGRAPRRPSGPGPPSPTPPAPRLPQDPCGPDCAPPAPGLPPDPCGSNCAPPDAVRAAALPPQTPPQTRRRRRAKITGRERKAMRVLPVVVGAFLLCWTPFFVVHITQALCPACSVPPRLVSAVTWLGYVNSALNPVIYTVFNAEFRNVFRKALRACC
Method: as §1

Histaminergic H1 = Histaminergic H1 (Homo sapiens, UniProt P35367); experiment: competitive radioligand binding, Histaminergic H1; conditions: compound concentration of 1 μM
Method: as §1

Histaminergic H2 = Histaminergic H2 (Homo sapiens, UniProt P25021); experiment: competitive radioligand binding, Histaminergic H2; conditions: compound concentration of 1 μM
Method: as §1

Histaminergic H3 = Histaminergic H3 (Homo sapiens, UniProt Q9Y5N1); experiment: competitive radioligand binding, Histaminergic H3; conditions: compound concentration of 1 μM; in % (unit assumed)
Method: as §1

Serotoninergic 5-HT1A = target: T4, Serotoninergic 5-HT1A (Homo sapiens, UniProt P08908); experiment: competitive radioligand binding, Serotoninergic 5-HT1A; conditions: compound concentration of 1 μM
T4 sequence (P08908 1-422): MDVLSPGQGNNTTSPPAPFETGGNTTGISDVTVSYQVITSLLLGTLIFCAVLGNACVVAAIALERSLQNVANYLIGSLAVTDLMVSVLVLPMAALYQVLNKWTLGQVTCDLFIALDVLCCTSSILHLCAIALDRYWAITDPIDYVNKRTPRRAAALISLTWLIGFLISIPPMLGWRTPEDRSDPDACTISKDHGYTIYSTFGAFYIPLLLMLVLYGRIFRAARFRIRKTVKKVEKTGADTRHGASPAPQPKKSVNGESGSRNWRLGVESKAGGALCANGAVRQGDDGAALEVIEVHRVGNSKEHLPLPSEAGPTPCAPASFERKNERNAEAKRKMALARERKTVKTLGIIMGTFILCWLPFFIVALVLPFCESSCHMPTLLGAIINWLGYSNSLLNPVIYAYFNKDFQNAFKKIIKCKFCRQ
Method: as §1

Serotoninergic 5-HT1B = experiment: competitive radioligand binding, Serotoninergic 5-HT1B; conditions: compound concentration of 1 μM
Method: as §1

Serotoninergic 5-HT2A = Serotoninergic 5-HT2A (Homo sapiens, UniProt P28223); experiment: competitive radioligand binding, Serotoninergic 5-HT2A; conditions: compound concentration of 1 μM
Method: as §1

Serotoninergic 5-HT2B = Serotoninergic 5-HT2B (Homo sapiens, UniProt P41595); experiment: competitive radioligand binding, Serotoninergic 5-HT2B; conditions: compound concentration of 1 μM
Method: as §1

Serotoninergic 5-HT2C = target: T5, Serotoninergic 5-HT2C (Homo sapiens, UniProt P28335); experiment: competitive radioligand binding, Serotoninergic 5-HT2C; conditions: compound concentration of 1 μM
T5 sequence (P28335 33-458): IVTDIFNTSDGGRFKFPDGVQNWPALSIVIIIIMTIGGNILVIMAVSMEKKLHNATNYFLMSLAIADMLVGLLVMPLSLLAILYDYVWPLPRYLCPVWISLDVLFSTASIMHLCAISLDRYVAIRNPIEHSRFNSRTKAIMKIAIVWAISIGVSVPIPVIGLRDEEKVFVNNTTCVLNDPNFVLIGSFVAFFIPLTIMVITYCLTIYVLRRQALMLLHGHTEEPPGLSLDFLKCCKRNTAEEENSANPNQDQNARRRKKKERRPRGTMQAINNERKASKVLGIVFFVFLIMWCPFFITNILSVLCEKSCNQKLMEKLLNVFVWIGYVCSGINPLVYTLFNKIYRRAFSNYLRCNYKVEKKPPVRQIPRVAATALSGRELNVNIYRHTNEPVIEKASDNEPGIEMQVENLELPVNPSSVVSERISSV
Method: as §1

Serotoninergic 5-HT6 = Serotoninergic 5-HT6 (Homo sapiens, UniProt P50406); experiment: competitive radioligand binding, Serotoninergic 5-HT6; conditions: compound concentration of 1 μM
Method: as §1

Serotoninergic 5-HT7 = Serotoninergic 5-HT7 (Homo sapiens, UniProt P34969); experiment: competitive radioligand binding, Serotoninergic 5-HT7; conditions: compound concentration of 1 μM
Method: as §1

[1] = system: Therapeutic targets (Adrenergic, Dopaminergic, Histaminergic, Serotoninergic); experiment: Profiles of pharmacological activity in competitive radioligand binding (whole panel); conditions: 1 μM, grades not defined
Method: as §1

Mice of SHK line = experiment: Prepulse inhibition of startle response in mice (Apomorphine); conditions: 1 mg/kg, intraperitoneally 60 minutes before the test

Sequence of Serotoninergic 5-HT6 (P50406 whole entry): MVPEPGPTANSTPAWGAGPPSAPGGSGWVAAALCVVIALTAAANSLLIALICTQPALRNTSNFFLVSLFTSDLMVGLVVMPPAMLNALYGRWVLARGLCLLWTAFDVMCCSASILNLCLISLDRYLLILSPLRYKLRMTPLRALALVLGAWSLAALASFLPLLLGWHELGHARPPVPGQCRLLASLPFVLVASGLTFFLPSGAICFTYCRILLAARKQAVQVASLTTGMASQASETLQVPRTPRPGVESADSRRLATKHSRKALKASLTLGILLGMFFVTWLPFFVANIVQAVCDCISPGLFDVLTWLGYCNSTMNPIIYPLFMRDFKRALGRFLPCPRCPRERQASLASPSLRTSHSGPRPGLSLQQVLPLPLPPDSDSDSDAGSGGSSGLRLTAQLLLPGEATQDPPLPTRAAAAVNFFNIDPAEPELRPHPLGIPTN
Sequence of Histaminergic H1 (P35367 whole entry): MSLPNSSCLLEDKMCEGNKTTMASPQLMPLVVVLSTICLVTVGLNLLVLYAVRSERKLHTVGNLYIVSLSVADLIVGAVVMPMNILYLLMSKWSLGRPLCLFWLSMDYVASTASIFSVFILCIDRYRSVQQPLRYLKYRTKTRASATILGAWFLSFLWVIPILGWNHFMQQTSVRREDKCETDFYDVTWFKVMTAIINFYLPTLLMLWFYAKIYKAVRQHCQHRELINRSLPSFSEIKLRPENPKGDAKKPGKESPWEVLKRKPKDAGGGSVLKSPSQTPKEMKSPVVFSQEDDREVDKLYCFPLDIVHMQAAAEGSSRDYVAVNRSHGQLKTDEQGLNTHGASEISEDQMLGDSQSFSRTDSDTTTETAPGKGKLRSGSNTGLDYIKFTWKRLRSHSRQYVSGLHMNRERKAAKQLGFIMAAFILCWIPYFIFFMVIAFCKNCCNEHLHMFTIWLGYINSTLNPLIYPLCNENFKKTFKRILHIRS
Sequence of Serotoninergic 5-HT7 (P34969 whole entry): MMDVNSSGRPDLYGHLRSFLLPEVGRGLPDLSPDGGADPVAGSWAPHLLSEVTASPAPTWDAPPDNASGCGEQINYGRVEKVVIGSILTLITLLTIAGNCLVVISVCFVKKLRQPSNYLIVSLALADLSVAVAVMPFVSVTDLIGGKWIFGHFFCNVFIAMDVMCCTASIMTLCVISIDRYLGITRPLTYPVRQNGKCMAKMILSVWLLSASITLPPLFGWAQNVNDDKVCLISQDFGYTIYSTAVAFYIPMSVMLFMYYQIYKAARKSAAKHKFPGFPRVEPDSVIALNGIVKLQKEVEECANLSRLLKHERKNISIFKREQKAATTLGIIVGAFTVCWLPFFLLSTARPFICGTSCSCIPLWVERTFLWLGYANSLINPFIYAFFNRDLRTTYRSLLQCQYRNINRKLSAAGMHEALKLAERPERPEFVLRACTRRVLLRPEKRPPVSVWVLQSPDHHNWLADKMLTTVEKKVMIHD
Sequence of Serotoninergic 5-HT2A (P28223 whole entry): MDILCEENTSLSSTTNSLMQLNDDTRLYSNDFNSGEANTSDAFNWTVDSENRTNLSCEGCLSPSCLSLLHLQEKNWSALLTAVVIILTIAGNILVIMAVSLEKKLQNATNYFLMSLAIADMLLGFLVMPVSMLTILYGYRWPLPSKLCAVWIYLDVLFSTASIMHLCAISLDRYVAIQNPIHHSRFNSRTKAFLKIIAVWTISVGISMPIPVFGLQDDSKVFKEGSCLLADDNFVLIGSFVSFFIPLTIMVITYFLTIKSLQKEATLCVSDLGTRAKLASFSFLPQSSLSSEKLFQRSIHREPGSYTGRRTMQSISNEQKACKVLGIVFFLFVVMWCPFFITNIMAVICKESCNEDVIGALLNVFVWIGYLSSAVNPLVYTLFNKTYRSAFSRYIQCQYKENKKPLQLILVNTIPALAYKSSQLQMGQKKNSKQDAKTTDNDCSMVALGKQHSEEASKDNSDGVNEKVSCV
Sequence of Dopaminergic D3 (P35462 whole entry): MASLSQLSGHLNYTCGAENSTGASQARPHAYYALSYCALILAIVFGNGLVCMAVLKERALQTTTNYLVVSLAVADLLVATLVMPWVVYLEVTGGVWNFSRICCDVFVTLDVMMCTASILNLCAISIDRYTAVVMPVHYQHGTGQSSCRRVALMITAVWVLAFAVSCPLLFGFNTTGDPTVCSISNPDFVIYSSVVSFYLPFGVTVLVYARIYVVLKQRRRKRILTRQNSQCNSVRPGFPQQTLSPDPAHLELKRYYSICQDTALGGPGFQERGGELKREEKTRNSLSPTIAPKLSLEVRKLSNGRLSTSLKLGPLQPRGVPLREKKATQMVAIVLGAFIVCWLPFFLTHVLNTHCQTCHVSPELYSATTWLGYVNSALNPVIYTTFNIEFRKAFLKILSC
Sequence of Dopaminergic D1 (P21728 whole entry): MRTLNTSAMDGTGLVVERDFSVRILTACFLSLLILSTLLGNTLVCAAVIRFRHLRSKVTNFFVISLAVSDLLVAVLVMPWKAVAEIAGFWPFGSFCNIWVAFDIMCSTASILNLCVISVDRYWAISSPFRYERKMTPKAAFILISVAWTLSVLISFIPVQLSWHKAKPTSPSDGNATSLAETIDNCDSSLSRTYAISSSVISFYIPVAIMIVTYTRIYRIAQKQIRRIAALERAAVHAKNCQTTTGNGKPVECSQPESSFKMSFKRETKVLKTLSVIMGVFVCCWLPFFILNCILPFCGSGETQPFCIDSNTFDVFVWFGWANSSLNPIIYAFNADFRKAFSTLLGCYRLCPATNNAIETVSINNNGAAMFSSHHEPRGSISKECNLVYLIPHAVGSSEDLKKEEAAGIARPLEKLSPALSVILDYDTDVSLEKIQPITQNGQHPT
Sequence of Histaminergic H3 (Q9Y5N1 whole entry): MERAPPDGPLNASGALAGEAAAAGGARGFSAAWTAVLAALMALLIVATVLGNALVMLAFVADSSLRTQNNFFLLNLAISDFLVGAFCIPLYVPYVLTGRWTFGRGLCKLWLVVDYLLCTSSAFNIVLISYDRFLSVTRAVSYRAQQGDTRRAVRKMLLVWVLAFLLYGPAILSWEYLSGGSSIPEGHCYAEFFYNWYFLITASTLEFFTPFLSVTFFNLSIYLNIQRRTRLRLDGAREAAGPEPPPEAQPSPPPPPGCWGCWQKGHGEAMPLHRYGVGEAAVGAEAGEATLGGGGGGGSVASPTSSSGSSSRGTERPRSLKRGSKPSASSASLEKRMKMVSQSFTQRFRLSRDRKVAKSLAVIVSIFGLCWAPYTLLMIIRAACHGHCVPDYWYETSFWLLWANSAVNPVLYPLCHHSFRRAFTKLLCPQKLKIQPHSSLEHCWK
Sequence of Dopaminergic D2L (P14416 whole entry): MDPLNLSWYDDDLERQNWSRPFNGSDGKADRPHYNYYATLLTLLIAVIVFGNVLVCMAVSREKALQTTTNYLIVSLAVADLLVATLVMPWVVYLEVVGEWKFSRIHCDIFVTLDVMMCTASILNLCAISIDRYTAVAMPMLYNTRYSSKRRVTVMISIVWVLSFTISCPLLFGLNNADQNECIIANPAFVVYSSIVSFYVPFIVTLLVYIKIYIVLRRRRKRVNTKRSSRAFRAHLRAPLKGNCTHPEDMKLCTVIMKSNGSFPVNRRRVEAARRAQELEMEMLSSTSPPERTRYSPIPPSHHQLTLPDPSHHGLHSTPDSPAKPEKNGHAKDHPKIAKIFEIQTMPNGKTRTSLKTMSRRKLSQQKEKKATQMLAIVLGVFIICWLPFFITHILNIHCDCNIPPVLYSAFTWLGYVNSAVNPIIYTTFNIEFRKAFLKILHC
Sequence of Dopaminergic D2S (P14416 1-414 isoform P14416-2): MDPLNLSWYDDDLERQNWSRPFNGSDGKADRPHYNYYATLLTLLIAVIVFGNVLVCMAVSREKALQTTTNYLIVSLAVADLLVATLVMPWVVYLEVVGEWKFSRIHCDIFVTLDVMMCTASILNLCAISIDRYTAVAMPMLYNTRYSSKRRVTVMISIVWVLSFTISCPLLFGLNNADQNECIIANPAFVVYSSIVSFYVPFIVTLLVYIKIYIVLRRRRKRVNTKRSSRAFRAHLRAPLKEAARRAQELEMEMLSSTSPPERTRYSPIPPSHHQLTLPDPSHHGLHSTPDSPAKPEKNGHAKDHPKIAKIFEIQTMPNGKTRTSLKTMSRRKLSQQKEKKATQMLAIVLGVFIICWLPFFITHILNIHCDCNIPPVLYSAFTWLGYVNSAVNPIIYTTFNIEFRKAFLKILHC
Sequence of Serotoninergic 5-HT2B (P41595 whole entry): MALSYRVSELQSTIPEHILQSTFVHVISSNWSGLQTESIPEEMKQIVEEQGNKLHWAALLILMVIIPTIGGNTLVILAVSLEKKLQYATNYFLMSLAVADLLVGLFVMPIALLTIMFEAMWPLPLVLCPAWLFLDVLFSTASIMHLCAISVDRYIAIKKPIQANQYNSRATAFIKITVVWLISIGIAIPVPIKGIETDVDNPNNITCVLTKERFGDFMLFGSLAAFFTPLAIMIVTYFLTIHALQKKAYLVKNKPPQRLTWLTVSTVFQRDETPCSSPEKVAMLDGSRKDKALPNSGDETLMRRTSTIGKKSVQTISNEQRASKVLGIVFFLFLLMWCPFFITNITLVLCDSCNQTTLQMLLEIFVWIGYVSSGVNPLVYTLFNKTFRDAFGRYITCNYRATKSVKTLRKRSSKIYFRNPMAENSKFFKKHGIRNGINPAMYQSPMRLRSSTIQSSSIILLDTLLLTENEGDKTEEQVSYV
Sequence of Histaminergic H2 (P25021 whole entry): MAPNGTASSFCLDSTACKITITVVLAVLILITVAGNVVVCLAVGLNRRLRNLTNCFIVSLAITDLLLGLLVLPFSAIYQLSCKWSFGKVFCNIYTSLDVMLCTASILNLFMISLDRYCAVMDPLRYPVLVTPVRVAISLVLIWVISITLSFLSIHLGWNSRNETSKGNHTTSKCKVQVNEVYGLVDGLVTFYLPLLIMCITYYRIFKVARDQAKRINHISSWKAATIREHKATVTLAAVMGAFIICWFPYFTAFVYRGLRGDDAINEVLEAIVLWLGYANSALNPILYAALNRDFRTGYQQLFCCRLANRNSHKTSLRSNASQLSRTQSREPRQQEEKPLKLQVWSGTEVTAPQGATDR

| Compound | radio-labelled ligand displacement, Adrenergic α1A (Adrenergic α1A) [%] | radio-labelled ligand displacement, Adrenergic α1B (Adrenergic α1B) [%] | radio-labelled ligand displacement, Adrenergic α1D (Adrenergic α1D) [%] | radio-labelled ligand displacement, Adrenergic α2A (Adrenergic α2A) [%] | radio-labelled ligand displacement, Dopaminergic D1 (Dopaminergic D1) [%] | radio-labelled ligand displacement, Dopaminergic D2L (Dopaminergic D2L) [%] | radio-labelled ligand displacement, Dopaminergic D2S (Dopaminergic D2S) [%] | radio-labelled ligand displacement, Dopaminergic D3 (Dopaminergic D3) [%] | radio-labelled ligand displacement, Dopaminergic D4.2 (Dopaminergic D4.2) [%] | radio-labelled ligand displacement, Histaminergic H1 (Histaminergic H1) [%] | radio-labelled ligand displacement, Histaminergic H2 (Histaminergic H2) [%] | radio-labelled ligand displacement, Histaminergic H3 (Histaminergic H3) | radio-labelled ligand displacement, Serotoninergic 5-HT1A (Serotoninergic 5-HT1A) [%] | radio-labelled ligand displacement, Serotoninergic 5-HT1B (Serotoninergic 5-HT1B) [%] | radio-labelled ligand displacement, Serotoninergic 5-HT2A (Serotoninergic 5-HT2A) [%] | radio-labelled ligand displacement, Serotoninergic 5-HT2B (Serotoninergic 5-HT2B) [%] | radio-labelled ligand displacement, Serotoninergic 5-HT2C (Serotoninergic 5-HT2C) [%] | radio-labelled ligand displacement, Serotoninergic 5-HT6 (Serotoninergic 5-HT6) [%] | radio-labelled ligand displacement, Serotoninergic 5-HT7 (Serotoninergic 5-HT7) [%] | grade of the activity profile (poor / satisfactory / good) [1] | also measured |
| --- | --- | --- | --- | --- | --- | --- | --- | --- | --- | --- | --- | --- | --- | --- | --- | --- | --- | --- | --- | --- | --- |
| Cc1ccc(CCCn2c3c(c4c(Cl)csc42)CN(C)CC3)cc1 [3.12(5)•HCl, 5-methyl-8-[(p-tolyl)propyl]-3-chloro-4,5,6,7-tetrahydro-5H-thieno[3′,2′:4,5]pyrrolo[3,2-c]pyridine] | 79 | 89 | 86 | 91 | 47 | 35 | 29 | 23 | 33 | 89 | 57 | −3 | 18 | 30 | 97 | 63 | 94 | 99 | 96 | good | – |
| CN1CCc2c(c3cc(Cl)sc3n2CCCc2cccc(F)c2)C1 [3.12(6)•HCl, 5-methyl-8-[(3-fluorophenyl)propyl]-2-chloro-4,5,6,7-tetrahydro-5H-thieno[3′,2′:4,5]pyrrolo[3,2-c]pyridine] | 84 | 96 | 83 | 91 | 63 | 81 | 77 | 69 | 68 | 97 | 91 | −1 | 50 | 43 | 97 | 91 | 98 | 84 | 95 | good | – |
| O=C(CCCN1CCC(O)(c2ccc(Cl)cc2)CC1)c1ccc(F)cc1 [Haloperidol, reference compound] | – | – | – | – | – | – | – | – | – | – | – | – | – | – | – | – | – | – | – | – | Antipsychotic activity: disturbance of prepulse inhibition of startle caused by Apomorphine (Mice of SHK line): prevented disturbance of prepulse inhibition of startle caused by Apomorphine |

From patent publication US20130267551A1, “SUBSTITUTED HYDROGENATED THIENO-PYRROLO[3,2-C]PYRIDINE, LIGANDS, A PHARMACEUTICAL COMPOSITION AND A METHOD FOR USING THE ABOVE” (ALLA CHEM, LLC, priority 2010, published 2013)
